Values of other authors, collected in patent US7195882B2, “Monoclonal antibodies specific for buprenorphine and metabolites thereof” (priority 2003, dated 2007).

Conditions: in vivo

CO[C@]12CC[C@@]3(C[C@@H]1[C@](C)(O)C(C)(C)C)[C@H]1Cc4ccc(O[C@@H]5O[C@H](C(=O)O)[C@@H](O)[C@H](O)[C@H]5O)c5c4[C@@]3(CCN1CC1CC1)[C@H]2O5 [buprenorphine glucuronide, buprenorphine 3-O-β-D-glucuronide]
appearance in urine: 1 to 2 days
